These compounds were tested against T1, AhR (Homo sapiens, UniProt P35869) (assay: In Vitro Assay 1: XRE-luciferase reporter assay, antagonism in human cell line (HepG2)). Conditions: Assay 1: AhR-Luc Human Antagonism (IC50, nM), unmarked values: kynurenine 200 μM, 6 hours.
T1 sequence (P35869 11-848): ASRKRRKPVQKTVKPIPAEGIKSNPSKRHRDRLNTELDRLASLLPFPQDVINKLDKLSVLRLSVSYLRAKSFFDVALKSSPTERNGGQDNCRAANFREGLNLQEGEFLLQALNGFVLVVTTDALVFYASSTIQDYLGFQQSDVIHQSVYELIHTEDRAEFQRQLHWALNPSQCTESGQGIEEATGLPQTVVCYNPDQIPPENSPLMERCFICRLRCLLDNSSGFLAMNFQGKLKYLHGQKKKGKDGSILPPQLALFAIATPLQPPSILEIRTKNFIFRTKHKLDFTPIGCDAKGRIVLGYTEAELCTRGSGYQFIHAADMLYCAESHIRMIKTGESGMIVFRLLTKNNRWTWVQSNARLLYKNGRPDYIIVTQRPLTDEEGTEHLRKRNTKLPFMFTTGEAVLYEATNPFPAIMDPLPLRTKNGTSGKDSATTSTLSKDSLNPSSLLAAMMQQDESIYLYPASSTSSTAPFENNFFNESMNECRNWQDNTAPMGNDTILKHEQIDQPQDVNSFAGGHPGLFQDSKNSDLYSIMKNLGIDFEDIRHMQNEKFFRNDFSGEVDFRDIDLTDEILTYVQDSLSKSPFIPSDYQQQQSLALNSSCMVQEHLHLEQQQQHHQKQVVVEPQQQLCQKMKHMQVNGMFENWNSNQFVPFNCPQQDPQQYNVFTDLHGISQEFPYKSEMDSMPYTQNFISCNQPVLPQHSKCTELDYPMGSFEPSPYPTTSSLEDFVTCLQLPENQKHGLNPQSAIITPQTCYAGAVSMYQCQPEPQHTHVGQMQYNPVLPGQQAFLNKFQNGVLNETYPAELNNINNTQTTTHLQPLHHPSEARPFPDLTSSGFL
OC[C@H]1CCN(c2cc(-c3ccc(C(F)(F)F)cc3)nc(-c3cccnc3)n2)C[C@H]1F [Example 250, ((3S,4R)-3-fluoro-1-(2-(pyridin-3-yl)-6-(4-(trifluoromethyl)phenyl)pyrimidin-4-yl)piperidin-4-yl)methanol] was tested, and the IC50 was < 10 nM. OC[C@@H]1CCN(c2cc(-c3ccc(Cl)cc3)nc(-c3cccnc3)n2)C[C@@H]1F [Example 251, ((3R,4S)-1-(6-(4-chlorophenyl)-2-(pyridin-3-yl)pyrimidin-4-yl)-3-fluoropiperidin-4-yl)methanol] was tested, and the IC50 was < 10 nM. With OC[C@@H]1CCN(c2cc(-c3ccc(C(F)(F)F)cc3)nc(-c3cccnc3)n2)C[C@@H]1F [Example 252, ((3R,4S)-3-fluoro-1-(2-(pyridin-3-yl)-6-(4-(trifluoromethyl)phenyl)pyrimidin-4-yl)piperidin-4-yl)methanol] the IC50 was < 10 nM. For OC[C@H]1CCN(c2cc(-c3ccc(Cl)cc3)nc(-c3cccnc3)n2)C[C@@H]1F [Example 253, ((3R,4R)-1-(6-(4-chlorophenyl)-2-(pyridin-3-yl)pyrimidin-4-yl)-3-fluoropiperidin-4-yl)methanol], the IC50 was < 10 nM. OC[C@H]1CCN(c2cc(-c3ccc(C(F)(F)F)cc3)nc(-c3cccnc3)n2)C[C@@H]1F [Example 254, ((3R,4R)-3-fluoro-1-(2-(pyridin-3-yl)-6-(4-(trifluoromethyl)phenyl)pyrimidin-4-yl)piperidin-4-yl)methanol] was tested, and the IC50 was < 10 nM. Compound OC[C@H]1CN(c2cc(-c3ccc(Cl)cc3)nc(-c3cccnc3)n2)C[C@H]1O [Example 255, (3S,4R)-1-(6-(4-chlorophenyl)-2-(pyridin-3-yl)pyrimidin-4-yl)-4-(hydroxymethyl)pyrrolidin-3-ol] has an IC50 of 10 to 100 nM. For OC[C@H]1CN(c2cc(-c3ccc(C(F)(F)F)cc3)nc(-c3cccnc3)n2)C[C@H]1O [Example 256, (3S,4R)-4-(hydroxymethyl)-1-(2-(pyridin-3-yl)-6-(4-(trifluoromethyl)phenyl)pyrimidin-4-yl)pyrrolidin-3-ol], the IC50 was < 10 nM. With OC[C@H]1CN(c2cc(-c3ccc(Cl)cc3)nc(-c3cccnc3)n2)C[C@@H]1O [Example 257, (3R,4R)-1-(6-(4-chlorophenyl)-2-(pyridin-3-yl)pyrimidin-4-yl)-4-(hydroxymethyl)pyrrolidin-3-ol] the IC50 was < 10 nM. In the case of OC[C@H]1CCN(c2cc(-c3ccc(Cl)cc3)nc(-c3cccnc3)n2)C[C@@H]1O [Example 259, (3R,4R)-1-(6-(4-chlorophenyl)-2-(pyridin-3-yl)pyrimidin-4-yl)-4-(hydroxymethyl)piperidin-3-ol], the IC50 is reported as < 10 nM. For OC[C@@H]1CCN(c2cc(-c3ccc(Cl)cc3)nc(-c3cccnc3)n2)C[C@H]1O [Example 261, (3S,4S)-1-(6-(4-chlorophenyl)-2-(pyridin-3-yl)pyrimidin-4-yl)-4-(hydroxymethyl)piperidin-3-ol], the IC50 was < 10 nM. Cc1ccncc1-c1nc(-c2ccc(C(F)(F)F)cc2)cc(N2CC[C@H](O)C2)n1 [Example 263, (S)-1-(2-(4-methylpyridin-3-yl)-6-(4-(trifluoromethyl)phenyl)pyrimidin-4-yl)pyrrolidin-3-ol] was tested, and the IC50 was < 10 nM. For OC[C@@H]1CCN(c2cc(-c3ccc(Cl)cc3)nc(-c3cccnc3)n2)C[C@@H]1O [Example 264, (3R,4S)-1-(6-(4-chlorophenyl)-2-(pyridin-3-yl)pyrimidin-4-yl)-4-(hydroxymethyl)piperidin-3-ol], the IC50 was 10 to 100 nM. With OC[C@@H]1CCN(c2cc(-c3ccc(C(F)(F)F)cc3)nc(-c3cccnc3)n2)C[C@@H]1O [Example 265, (3R,4S)-4-(hydroxymethyl)-1-(2-(pyridin-3-yl)-6-(4-(trifluoromethyl)phenyl)pyrimidin-4-yl)piperidin-3-ol] the IC50 was < 10 nM. OC[C@@H]1CN(c2cc(-c3ccc(Cl)cc3)nc(-c3cccnc3)n2)C[C@H]1O [Example 266, (3S,4S)-1-(6-(4-chlorophenyl)-2-(pyridin-3-yl)pyrimidin-4-yl)-4-(hydroxymethyl)pyrrolidin-3-ol] was tested, and the IC50 was < 10 nM. With OC[C@@H]1CN(c2cc(-c3ccc(C(F)(F)F)cc3)nc(-c3cccnc3)n2)C[C@H]1O [Example 267, (3S,4S)-4-(hydroxymethyl)-1-(2-(pyridin-3-yl)-6-(4-(trifluoromethyl)phenyl)pyrimidin-4-yl)pyrrolidin-3-ol] the IC50 was < 10 nM. In the case of Cc1ncccc1-c1nc(-c2ccc(C(F)(F)F)cc2)cc(N2CC[C@H](O)C2)n1 [Example 269, (S)-1-(2-(2-methylpyridin-3-yl)-6-(4-(trifluoromethyl)phenyl)pyrimidin-4-yl)pyrrolidin-3-ol], the IC50 is reported as < 10 nM. Oc1ncccc1-c1nc(-c2ccc(C(F)(F)F)cc2)cc(N2CC[C@H](O)C2)n1 [Example 270, (S)-3-(4-(3-hydroxypyrrolidin-1-yl)-6-(4-(trifluoromethyl)phenyl)pyrimidin-2-yl)pyridin-2-ol] was tested, and the IC50 was < 10 nM. With OCC1CCN(c2cc(-c3ccc(Cl)cc3O)nc(-c3cccnc3)n2)CC1 [Example 271, 5-chloro-2-(6-(4-(hydroxymethyl)piperidin-1-yl)-2-(pyridin-3-yl)pyrimidin-4-yl)phenol] the IC50 was < 10 nM. In the case of CC(C)(C)OC(=O)N1CCN(c2cc(-c3ccc(Cl)cc3)nc(-c3cccnc3)n2)C[C@H]1CO [Example 272, tert-butyl (S)-4-(6-(4-chlorophenyl)-2-(pyridin-3-yl)pyrimidin-4-yl)-2-(hydroxymethyl)piperazine-1-carboxylate], the IC50 is reported as 10 to 100 nM. With CS(=O)(=O)Nc1ccc(-c2cc(N3CCC(CO)CC3)nc(-c3cccnc3)n2)cc1 [Example 274, N-(4-(6-(4-(hydroxymethyl)piperidin-1-yl)-2-(pyridin-3-yl)pyrimidin-4-yl)phenyl)methanesulfonamide] the IC50 was > 1000 nM. Compound CN1CCN(c2ccc(-c3cc(N4CCC(CO)CC4)nc(-c4cccnc4)n3)cc2)CC1 [Example 275, (1-(6-(4-(4-methylpiperazin-1-yl)phenyl)-2-(pyridin-3-yl)pyrimidin-4-yl)piperidin-4-yl)methanol] has an IC50 of 10 to 100 nM. OCC1CCN(c2cc(-c3c(F)cc(F)cc3F)nc(-c3cccnc3)n2)CC1 [Example 277, (1-(2-(pyridin-3-yl)-6-(2,4,6-trifluorophenyl)pyrimidin-4-yl)piperidin-4-yl)methanol] was tested, and the IC50 was 100 to 1000 nM. OC[C@@H]1CN(c2cc(-c3ccc(C(F)(F)F)cc3)nc(-c3cccnc3)n2)CCO1 [Example 279, (S)-(4-(2-(pyridin-3-yl)-6-(4-(trifluoromethyl)phenyl)pyrimidin-4-yl)morpholin-2-yl)methanol] was tested, and the IC50 was < 10 nM. With OC[C@@H]1CCN(c2cc(-c3ccc(C(F)(F)F)cc3)nc(-c3cccnc3)n2)C[C@H]1F [Example 281, ((3S,4S)-3-fluoro-1-(2-(pyridin-3-yl)-6-(4-(trifluoromethyl)phenyl)pyrimidin-4-yl)piperidin-4-yl)methanol] the IC50 was < 10 nM. For O[C@H]1CN(c2cc(-c3ccc(Cl)cc3)nc(-c3cccnc3)n2)C[C@@H]1O [Example 284, (3S,4S)-1-(6-(4-chlorophenyl)-2-(pyridin-3-yl)pyrimidin-4-yl)pyrrolidine-3,4-diol], the IC50 was < 10 nM. OCC1CCN(c2cc(-c3ccc(N4CCOCC4)cc3)nc(-c3cccnc3O)n2)CC1 [Example 285, 3-(4-(4-(hydroxymethyl)piperidin-1-yl)-6-(4-morpholinophenyl)pyrimidin-2-yl)pyridin-2-ol] showed an IC50 of 10 to 100 nM. With Cn1cc(-c2nc(-c3ccc(N4CCOCC4)cc3)cc(N3CCC(CO)CC3)n2)cn1 [Example 286, (1-(2-(1-methyl-1H-pyrazol-4-yl)-6-(4-morpholinophenyl)pyrimidin-4-yl)piperidin-4-yl)methanol] the IC50 was 100 to 1000 nM. Work on Cn1cc(-c2nc(-c3ccc(N4CCOCC4)c(F)c3)cc(N3CCC(CO)CC3)n2)cn1 [Example 287, (1-(6-(3-fluoro-4-morpholinophenyl)-2-(1-methyl-1H-pyrazol-4-yl)pyrimidin-4-yl)piperidin-4-yl)methanol] yielded an IC50 of 100 to 1000 nM. With OCC1CCN(c2cc(-c3ccc4[nH]ncc4c3)nc(-c3cccnc3)n2)CC1 [Example 288, (1-(6-(1H-indazol-5-yl)-2-(pyridin-3-yl)pyrimidin-4-yl)piperidin-4-yl)methanol] the IC50 was 100 to 1000 nM. With O=C1Cc2cc(-c3cc(N4CCC(CO)CC4)nc(-c4cccnc4)n3)ccc2N1 [Example 290, 5-(6-(4-(hydroxymethyl)piperidin-1-yl)-2-(pyridin-3-yl)pyrimidin-4-yl)indolin-2-one] the IC50 was > 1000 nM. With O=C1COCCN1c1ccc(-c2cc(N3CCC(CO)CC3)nc(-c3cccnc3)n2)cc1 [Example 291, 4-(4-(6-(4-(hydroxymethyl)piperidin-1-yl)-2-(pyridin-3-yl)pyrimidin-4-yl)phenyl)morpholin-3-one] the IC50 was > 1000 nM. For O=C(O)c1ccc(-c2cc(N3CCC(CO)CC3)nc(-c3cccnc3)n2)cc1 [Example 292, 4-(6-(4-(hydroxymethyl)piperidin-1-yl)-2-(pyridin-3-yl)pyrimidin-4-yl)benzoic acid], the IC50 was > 1000 nM.
